Data on one compound can be found in patent US20170172929A1, “PHARMACEUTICAL COMPOSITION CONTAINING PREGABALIN WITH IMPROVED STABILITY AND METHOD FOR PREPARING SAME” (Yungjin Pharm. Co., Ltd., priority 2014, published 2017).

Read-outs that look alike come from different tables or passages of the source.

For series [1] the following is noted: cited from earlier work.
The conditions of series [2]: severe conditions (60°C), airtight glass vial, excipient mixed 1:1.
Procedure: 1 g of pregabalin and each 1 g of the excipients given in Table 14 were mixed at room temperature, and the mixture in the form of powder was air-tightened in a glass vial, and this vial was stored under severe conditions (60° C.) for 2 weeks, and then a percentage (%) of lactam related compounds (PRG-Lactam) relative to the main peak was calculated by HPLC. The analysis wavelength was 210 nm, a mixture (0.04 M ammonium phosphate ((NH4)2HPO4) buffer solution:acetonitrile:methanol=84:5:11) containing 5 mM sodium 1-octanesulfonate used as a mobile phase A, and acetonitrile was used as a mobile phase B. The mobile phase A was maintained at 100% for initial 6 minutes, and the m phase A was maintained from 100% to 70% and the mobile phase B was maintained from 0% to 30% for 6˜45 minutes, and then the mobile phase A was maintained at 70% and the mobile phase B was maintained at 0% for 45˜50 minutes. Post time was 10 minutes. A flow rate was adjusted (0.9 min/mL) so that a retention time of pregabalin was about 8 minutes. A column was a stainless steel column having an internal diameter of about 4.6 mm and a length of about 250 mm, packed with 5 μm-octadecylsilyl silica gel for liquid chromatography.

For the compound `CC(C)C[C@H](CN)CC(=O)O` [Pregabalin, (S)-3-(aminomethyl)-5-methylhexanoic acid], the “Time to steady-state blood levels” value in series [1] (after administration) is recorded as 24˜48 hours. The Average absorption time in series [1] (in vivo) is 6 h. Besides, the Half-life result in series [1] (normal person) was “about 6 hours”. Moreover, the “Time to reach peak blood levels” value in series [1] (oral immediate release) was at most 1.5 h. The “% of Peak area of PRG-Lactam relative to peak area of pregabalin” value in series [2] (0 weeks) is 0.074%; in series [2] (1 week) it was 0.196%; in series [2] (2 weeks) it was 0.329%.
